Source: patent US10654859B2, “Methanesulfonate polymorph of 5-type phosphodiesterase inhibitor and preparation method and applications thereof” (JINAN MEILUWEI BIOTECHNOLOGY CO., LTD., priority 2017, dated 2020)

Test: Solubility test (Chinese Pharmacopoeia 2010 criteria)
Assay type: physicochemical
Conditions: 25° C.±2° C.; for solubility in 95% ethanol (pharmacopoeia term) / solubility in water (pharmacopoeia term): observed within 30 minutes
Procedure: The regulations on solubility in the guide to the second volume of Chinese Pharmacopoeia 2010 edition are used as criteria.
Weigh samples ground to fine powder (sample B: the compound of formula A; sample C: the methanesulfonate polymorph of the compound of formula A prepared in Embodiment 1), put the samples into a certain volume of solvent at 25° C.±2° C., and vigorously shake the samples for 30 seconds every 5 minutes; observe the dissolution within 30 minutes, wherein if solute particles are not observed, the samples are completely dissolved.

Structure (SMILES) | amount of 95% ethanol in which 1 g of sample is dissolved | solubility in 95% ethanol (pharmacopoeia term) | amount of water in which 1 g of sample is dissolved | solubility in water (pharmacopoeia term)
CCCc1nn(C)c2c(=S)[nH]c(-c3cc(C(=S)N4CCN(C)CC4)ccc3OCC)nc12 [sample B, 5-[2-ethoxy-5-(4-methylpiperazin-1-ylthiocarbonyl)phenyl]-1-methyl-3-n-propyl-1,6-dihydro-pyrazolo[4,3-d]pyrimidin-7-thione] | > 10000 g | almost insoluble | > 10000 g | hardly soluble
CCCc1nn(C)c2c(=S)[nH]c(-c3cc(C(=S)N4CCN(C)CC4)ccc3OCC)nc12 [sample C, 5-[2-ethoxy-5-(4-methylpiperazin-1-ylthiocarbonyl)phenyl]-1-methyl 3-n-propyl-1,6-dihydro-pyrazolo[4,3-d]pyrimidin-7-thione methanesulfonate polymorph] | ≤ 90 g | slightly soluble | ≤ 800 g | slightly soluble
